Data on 4 substances can be found in patent US4269827A, “Process and composition for reducing blood pressure” (The Massachusetts General Hospital, priority 1980, dated 1981).

“And” between values parts separate entries of the source, which are not always exact repeats. Identical values can stand only once. Like-named read-outs stand apart in the source and are kept apart here. No end group written: not given here.

The target in assay [1] is T1, renin (Homo sapiens, UniProt P00797).
T1 sequence (P00797 67-406): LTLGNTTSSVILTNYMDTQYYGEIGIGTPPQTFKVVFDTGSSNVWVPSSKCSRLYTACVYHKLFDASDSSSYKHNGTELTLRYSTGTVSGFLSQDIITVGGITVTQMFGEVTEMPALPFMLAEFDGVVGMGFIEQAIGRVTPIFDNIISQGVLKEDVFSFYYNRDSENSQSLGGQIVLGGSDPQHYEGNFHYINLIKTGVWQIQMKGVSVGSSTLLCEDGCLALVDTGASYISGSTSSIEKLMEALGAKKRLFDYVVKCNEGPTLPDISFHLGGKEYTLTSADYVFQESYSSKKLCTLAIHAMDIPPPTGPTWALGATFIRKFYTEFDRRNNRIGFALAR
Particulars: octapeptides with changed cleavage site; read-out: binding constants; cited from earlier work.

The target in assay [2] is T2, plasma renin activity (Homo sapiens, UniProt P00797).
T2 construct: added to pooled human plasma having a plasma renin activity; from tissue; host or cells: pooled human plasma
T2 sequence (P00797 67-406): T1 sequence (P00797 67-406)
The assay is described as follows: In vitro inhibition of plasma renin activity in pooled human plasma. The class given is biochemical. Particulars: peptide in saline (1 mM) added to pooled human plasma; read-out: 50% inhibition of plasma renin activity (converted). On the procedure:
The mixture is incubated for 45 min at 37° and then cooled to 0°. Complementary amounts of plasma are then added as 20 μl of a plasma dilution in 0.1 M Tris HCl (pH 7.5) containing 0.5% albumin to give the same amount of plasma protein in all tubes. Tracer and antibody (1000 μl) are then added following the radioimmunoassay procedure described by Poulsen et al, J. Clin. Endocrinol. Metab. 39, 816, (1974). Data for the standard curve is collected in the same medium kept at 4°. To determine Ki parallel series of experiments are performed in which the 10 μl Tris buffer is replaced with 10 μl of a solution containing between 2-100 μM inhibitor, respectively.
The inhibitory effect of the decapeptide in human plasma was determined as follows: human blood was drawn in ice cold tubes containing EDTA as anticoagulent and the plasma was immediately separated at 4° C. […] Substrate concentration was determined by measuring angiotensin I concentration by radioimmunoassay after incubation of plasma diluted 1:10 in the phosphate albumin buffer (pH 7.4) with 10 µl of human renin solution (0.006 GU/ml) for 1, 2, 3 and 4 hrs in order to convert renin substrate completely to angiotensin I. EDTA, BAL (2,3-dimercapto-1-propanol) and 8-hydroxyquinoline were added as angiotensinase inhibitors, Haber et al, J. Clin. Endocrinol. […]

The target in assay [3] is T1, renin. As to the kind of experiment: In vitro inhibition of renin, inhibitor constant (Ki) with tetradecapeptide substrate, angiotensin I radioimmunoassay. The class given is biochemical. Particulars: pH 7.4, read-out: inhibitory constant (Ki).
Experimental: The peptide being tested is dissolved in 0.01 N HCl and the pH adjusted to pH 7.5 to obtain high concentrations of peptide. The peptide solution is diluted further to appropriate concentrations with 0.1 M Tris HCL-albumin.
First, to determine Km renin (0.006 Goldblatt unit/ml) is incubated for 2 hrs. at 37° with incremental concentrations of Tetradecapeptide substrate varying between 3 and 108 μM in a volume of 160 μl at pH 7.5 in 0.1 M Tris HCl containing 0.5% albumin. The release of angiotensin I is determined by radioimmunoassay, Haber et al., J. Clin. Endocrinol. […] The cross-reaction of the tetradecapeptide with antibody is about 1% and less than 0.5% with the renin inhibitors both before and after exposure to renin.
The inhibitor constant is calculated as previously described, Poulsen et al., Scand. […] No. 132, 1, (1973), from a weighted least-squares fit of a Lineweaver-Burk plot. Each point is given a weight proportional to the initial velocity, Dowd et al, J. Biol. Chem. 240, 863, (1965).
The tetradecapeptide is a renin substrate releasing angiotensin I after cleavage between leucyl residues at positions 10 and 11.
Specific antibody is used to measure angiotensin I release from the decapeptide.
The rate of cleavage between renin and decapeptide will therefore be given by Dixon and Webb, Enzymes, New York, N.Y., Academic (1964), [formula] […]

In the case of Leu-Phe, the Ki in assay [1] is 4 µM. In the case of Leu-Tyr, in assay [1], the Ki was 12 µM. With “PHPFHFFVYK [I, Pro-His-Pro-Phe-His-Phe-Phe-Val-Tyr-Lys]”, the IC50 in assay [2] is 45 µM and 44.7 µM. The Ki in assay [3] came out at 2 µM. With Phe-Phe, the Ki in assay [1] was 1 µM.
